Experimental data taken from US5653957A, “Halogenated sulfidohydroboranes for nuclear medicine and boron neutron capture therapy” (Associated Universities, Inc., priority 1996, dated 1997).

Key:
[1] = system: mice; test: Subacute toxicity in mice judged by hematological and chemical tests of the blood 5 days after i.p. injection; type: in vivo, female mice (BNL Hale-Stoner strain)
Method: C) 0.9% NaCl in water (saline) (7 mice).
Injection volumes were all 0.015 mL/gbw.
Inadvertently,the BSSB group (Group A) received 17 μg ^10 B/gbw, only about one-third of the intended boron dose, 50 μg/gbw. Nevertheless, it is useful to compare the subacute toxicity of a relatively high dose of a substance, IBSSB, which had never before been tested in an animal, with that of its parent compound, BSSB, which is known to be non-lethal at about 35 μg B/gbw, i.e., twice the lower of the two boron doses used See Slatkin et al., "Boron Uptake in Melanoma, Cerebrum and Blood from Na2 B12 H11 SH and Na4 B24 H22 S2 Administered to Mice", Biochem. Pharm., 35, 1771 (1986).
See Miura et al., "Biodistribution and Toxicity of 2,4-Divinyl-nido-carboranyldeuterophorphyrin IX in Mice". Biochem. Pharm., 43, 467 (1992). It therefore appears that the periodinated borane is not more toxic than the non-iodinated borane.

[2] = system: mice; details: at about 35 μg B/gbw; cited from earlier work
[3] = system: brain tumors; details: mouse, in vivo; cited from earlier work
[4] = mouse, in vivo
Method: Three groups of female mice (BNL Hale-Stoner strain) were given a single intraperitoneal (i.p.) injection of:
Injection volumes were all 0.015 mL/gbw. Five days after the injection, mice were euthanized by deep halothane inhalation anesthesia. Thoracotomy was performed, and about 0.7-0.9 mL blood was removed through the right ventricle. Hematological and chemical analyses were performed on blood specimens from each mouse.
(mg/dL), blood urea nitrogen [BUN] (mg/dL), blood creatinine [BCR] (mg/dL) aspartate transaminase [AST] (U/L), alanine transaminase [ALT] (U/L), alkaline phosphatase [ALP] (U/L), creatine phosphokinase [CPK] (U/L), total protein [TPR] (g/dL), albumin [ALB] (g/dL), calcium [CA] (mg/dL), chloride [CHL] (meg/L), inorganic phosphorus [P] (mg/dL), potassium [K] (meg/L), and sodium [SOD] (meg/L) .

For BSSB, the “fourteen chemical and thirteen hematological tests, BSSB (Group A) vs IBSSB (Group B)” value ([1]; mouse, in vivo) is listed as “no significant differences between the two groups”, the lethality [2] is listed as “non-lethal” and the “accumulation in brain tumors vs the monomeric form” value [3] is listed as “more readily accumulated in brain tumors than the monomeric form”.
For “periodinated dimeric sulfidohydrododecaborane [IBSSB]”, the “fourteen chemical and thirteen hematological tests, BSSB (Group A) vs IBSSB (Group B)” value ([1]; mouse, in vivo) was “no significant differences between the two groups”, the hepatotoxicity ([1]; mouse, in vivo) was “may be slightly hepatotoxic to mice” and the “other differences between mice in groups B and C” value ([1]; mouse, in vivo) was “No other differences were noted”. For the same substance, the significant toxicity ([1]; mouse, in vivo) was “no evidence of significant toxicity”, the “toxicity judged by hematological and chemical tests of the blood, vs BSSB” value ([1]; single i.p. 50 μg B/gbw, vs three-fold less BSSB, 5 days later) was “only minimally more toxic” and the “alanine transaminase [ALT]” value [4] was 22 U/L. For the same substance, the “albumin [ALB]” value [4] was 3.3 g/dL, the “alkaline phosphatase [ALP]” value [4] was 110 U/L and the “aspartate transaminase [AST]” value [4] was 44 U/L. For the same substance, the “blood creatinine [BCR]” value [4] was 0.5 mg/dL, the “blood urea nitrogen [BUN]” value [4] was 28 mg/dL and the “calcium [CA]” value [4] was 11.5 mg/dL. For the same substance, the “chloride [CHL]” value [4] was 116 meg/L, the “creatine phosphokinase [CPK]” value [4] was 35 U/L and the “glucose [GLU]” value [4] was 278 mg/dL. The “inorganic phosphorus [P]” value [4] was 9.9 mg/dL, the “potassium [K]” value [4] was 7.1 meg/L and the “sodium [SOD]” value [4] was 154 meg/L. The “total protein [TPR]” value [4] was 5.9 g/dL.
